Laboratory results published in US20090208462A1, “Methods of Treatment” (IMPERIAL INNOVATIONS LIMITED, priority 2004, published 2009).
“Also recorded” adds a separate entry of the source. Blank lines part the entries; values can stand above or below the molecule they belong to.

Key:
human melanopsin = target: T1, human melanopsin (Homo sapiens, UniProt Q9UHM6); experiment: Retinaldehyde dependence of the light evoked current in melanopsin expressing cells; assay type: cell-based; details: for light evoked peak inward current after retinal preloading / change in 420 nm light evoked current after 540 nm light exposure: retinal 20 μM; for light evoked peak inward current after retinal preloading: 1 hour, 420 nm, 8×10^14 photons/cm^2/sec; for light-induced response to 540 nm stimulation itself: 20 nm half-bandwidth; for change in 420 nm light evoked current after 540 nm light exposure: 540 nm 10 mins (2×10^14 photons/cm^2/s), retest 420 nm 10 sec
T1 construct: expressed in transfected cells; host or cells: Mouse Neuro-2a cells (ATCC CCL-131), lipofectamine transfection with the pCMS-EGFP-based melanopsin vector, differentiated with retinoic acid
T1 sequence (Q9UHM6 1-478): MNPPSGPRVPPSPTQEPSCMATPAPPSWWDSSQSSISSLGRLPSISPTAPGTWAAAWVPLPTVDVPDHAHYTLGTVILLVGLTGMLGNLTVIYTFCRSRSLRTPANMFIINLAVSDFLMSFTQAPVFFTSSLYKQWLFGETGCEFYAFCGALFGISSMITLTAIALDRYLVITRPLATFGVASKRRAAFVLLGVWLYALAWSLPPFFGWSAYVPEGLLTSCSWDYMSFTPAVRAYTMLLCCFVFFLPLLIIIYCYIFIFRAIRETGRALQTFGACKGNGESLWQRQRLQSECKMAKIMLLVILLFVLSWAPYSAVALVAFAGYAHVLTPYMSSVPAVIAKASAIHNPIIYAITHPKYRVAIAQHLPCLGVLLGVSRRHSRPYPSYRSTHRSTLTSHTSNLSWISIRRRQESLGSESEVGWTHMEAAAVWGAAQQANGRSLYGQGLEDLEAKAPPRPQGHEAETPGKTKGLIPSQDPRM
Protocol: (§1) Mouse Neuro-2a cells (American Type Culture Collection; Cat no. CCL-131) were maintained at 37° C. in D-MEM, Dulbecco's Modified Eagle Medium with GlutaMAX™ I, 4500 mg/l D-Glucose, Sodium Pyruvate (D-MEM, Invitrogen) with 10% foetal bovine serum, 1% non-essential amino acids and 20 μg/ml gentomycin in a 5% CO2 atmosphere. Cells were trypsintsed, split and cultured at 1×10^5/ml in 90 mm dishes for 24 hours prior to transfection with plasmid vectors using lipofectamine (Invitrogen) in serum-free medium. DNA to lipid ratio was 10 μg DNA: 100 μg lipid. After transfection serum free medium was replaced with normal medium. On the following day, 2-3 days before study, cell differentiation was induced using 10 μM retinoic acid (Provencio et al., 2000). Starting from this point cells were kept in darkness. On the day of recording, glass coverslips serving as a substrate for cell attachment were transferred to the recording chamber. The perfusion solution contained 140 mM NaCl, […], 1 mM MgCl2, 2 mM CaCl2, 5 mM glucose, 10 mM HEPES (pH 7.3-7.4; 24° C.). Successfully transfected cells were identified by EGFP fluorescence under a 480 nm stimulus light using an OLYMPUS BX51WI microscope. At this point, retinal isoforms (20 μM; 9-cis and all-trans from Sigma-Aldrich; 11-cis from Dr R K Crouch, Medical University of S.C.) were added to the perfusion solution as necessary and cells kept in the dark for at least 1 hour before recording. Whole-cell patch-clamp recordings were made with pipettes containing 140 mM KCl, 10 mM NaCl, 1 mM MgCl2, 10 mM HEPES, 10 mM EGTA. Osmolarity was adjusted to 285±5 mosmol (milliosmol) 1^−1 and pH to 7.3-7.4 with KOH. Open pipette resistance was 2-5 MΩ (mega-ohms), and access resistance during recordings was <20 MΩ. Currents were recorded (Axopatch 200B, Axon Instruments) in neurons voltage clamped at holding potentials of −50 mV (milli-volt). The records were filtered at 1 kHz (kilohertz) and sampled at 20 kHz. Drugs were obtained from Sigma Aldrich, with the exception of NEM (N-ethylmaledomide) (Calbiochem), and DL-AP5, NF023, KT5720, U73122 and thapsigargin (all Tocris Cookson), drugs applied in superfusion were applied for 15-20 minutes prior to light stimulation.
(§2) Light stimuli were generated using a Cairn Optoscan Xenon arc source comprising a slit monochromator. Unless otherwise stated al stimuli were 10 sec in duration with a 20 nm half-bandwidth. Irradiance was measured using an optical powermeter (Macam Photometrics) and converted to photon flux. […] The nature of glutamate receptor expression in Neuro-2a cells remains ambiguous, nonetheless we excluded the possibility that this might be the origin of the melanopsin light response by application of the selective NMDA antagonist APV (2-amino-5-phosphonovaleric acid) (100 μM) which had no effect upon the light sensitive current (data not shown)

[1] = test system: melanopsin transduction cascade; experiment: Properties of the melanopsin transduction cascade: drug effects on light evoked current; assay type: cell-based, mouse; details: for effect on light evoked currents: 420 nm 10 sec 8×10^14 photons/cm^2/s; for effect on light evoked currents / effect on light evoked current / effect on light induced current / effect on photoresponses: 9-cis retinal 20 μM; for effect on light evoked current / effect on light induced current / effect on photoresponses: 420 nm 10 sec
Protocol: as §1, §2

Neuro-2a cells [2] = experiment: Spectral sensitivity of the light evoked current (pCI-neo human melanopsin); assay type: cell-based, mouse; details: 11-cis retinal, mean±SEM
Protocol: For analyses of spectral sensitivity EGFP expression was excluded by employing the pCI-neo mammalian expression vector (Promega).
as §1, §2
In order to assess the correspondence, if any, between the Neuro-2a light response and these action spectra we assessed cellular responses to stimuli ranging from 300 to 540 nm in cells transfected with a pCI-neo expression vector (Promega) driving human melanopsin. EGFP was not included as a marker of expression for these experiments because of its light absorbing and fluorescent properties. […]

Neuro-2a cells [3] = experiment: Whole cell recordings of light evoked current in Neuro-2a cells expressing human melanopsin; assay type: cell-based, mouse
From the text: The full length coding sequence of human melanopsin was amplified from retinal cDNA using Pfu-Turbo DNA polymerase (Stratagene) and the following restriction tagged primers: […]
The product was cloned into the pLITMUS28 Vector (New England Biolabs) and sequenced to confirm that there was no deviation from the reported sequence NM_033282; SEQ ID NO: 1). The product was subsequently cloned into the pCMS-EGFP vector (BD Biosciences), such that expression would be driven by the CMV immediate early promoter. A C-terminal 6×His-tagged melanopsin construct was generated in a similar manner, using the following primers: […]
as §1, §2

- light evoked peak inward current after retinal preloading (human melanopsin; listed as 11-cis-retinal): more responsive
Molecule: CC1=C(/C=C/C(C)=C/C=C/C(C)=C/C=O)C(C)(C)CCC1 [11-cis retinal]
- light evoked peak inward current after retinal preloading (human melanopsin): Significant photosensitivity; also recorded: significantly more effective

- light-induced response to 540 nm stimulation itself (human melanopsin): did not in itself evoke
- light evoked peak inward current after retinal preloading (human melanopsin): Significant photosensitivity
- light evoked peak inward current after retinal preloading (human melanopsin; listed as 9-cis-retinal): more responsive
- change in 420 nm light evoked current after 540 nm light exposure (human melanopsin): only a small potentiation
Molecule: CC1=C(/C=C/C(C)=C\C=C\C(C)=C\C=O)C(C)(C)CCC1 [9-cis retinal]

Molecule: O=C(Nc1cccc(C(=O)Nc2ccc(S(=O)(=O)O)c3cc(S(=O)(=O)O)cc(S(=O)(=O)O)c23)c1)Nc1cccc(C(=O)Nc2ccc(S(=O)(=O)O)c3cc(S(=O)(=O)O)cc(S(=O)(=O)O)c23)c1 [NF023]
- effect on light evoked currents ([1]; up to 1 μM in bath): no effect; also recorded: did not antagonise

- light-induced response to 540 nm stimulation itself (human melanopsin): did not in itself evoke
- light evoked peak inward current after retinal preloading (human melanopsin): modest light response
Molecule: CC1=C(/C=C/C(C)=C/C=C/C(C)=C/C=O)C(C)(C)CCC1 [all-trans retinal]
- change in 420 nm light evoked current after 540 nm light exposure (human melanopsin): large increase; also recorded: three-fold increase

Molecule: C/C=C(/C)C(=O)O[C@H]1C(C)=C2[C@H]([C@@H]1OC(=O)CCCCCCC)[C@@](C)(OC(C)=O)C[C@H](OC(=O)CCC)[C@@]1(O)[C@H]2OC(=O)[C@@]1(C)O [thapsigargin]
- effect on light evoked current ([1]; 5 to 10 μM in zero calcium perfusates for 15-20 mins): abolished

Molecule: COc1ccc2c(c1)CC[C@@H]1[C@@H]2CC[C@]2(C)[C@@H](NCCCCCCN3C(=O)C=CC3=O)CC[C@@H]12 [U73122]
- effect on light induced current ([1]; 50 μM): did not affect; also recorded: did not block

Molecule: CCN1C(=O)C=CC1=O [NEM, N-ethylmaledomide]
- effect on light evoked currents ([1]; 50 μM in bath): no effect
- effect on light evoked currents ([1]; 50 μM in bath, listed as N-ethyl): did not antagonise

Molecule: Cc1ccc(C(=O)Nc2ccc(S(=O)(=O)O)c3cc(S(=O)(=O)O)cc(S(=O)(=O)O)c23)cc1NC(=O)c1cccc(NC(=O)Nc2cccc(C(=O)Nc3cc(C(=O)Nc4ccc(S(=O)(=O)O)c5cc(S(=O)(=O)O)cc(S(=O)(=O)O)c45)ccc3C)c2)c1 [suramin]
- effect on photoresponses ([1]; 100 μM in bath): largely abolished; also recorded: abolish

Molecule: CCCCCCOC(=O)[C@]1(O)C[C@@H]2O[C@@]1(C)n1c3ccccc3c3c4c(c5c6ccccc6n2c5c31)C(=O)NC4 [KT5720]
- effect on light induced current ([1]; 1 μM): did not affect

Molecule: [Cd+2] [Cd^2+]
- effect on light evoked current ([1]; 100 μM, and/or removal of calcium from perfusate): little significant effect

Molecule: Nc1nc2c(nc(Br)n2[C@@H]2O[C@@H]3COP(=O)(O)O[C@H]3[C@H]2O)c(=O)[nH]1 [8-Br-cGMP]
- effect on light response ([1]; 1 mM in pipette): abolished
- effect on light induced current ([1]; in patch pipette, 100 μM and 1 nM): dose dependent suppression

Molecule: Cn1cc(C2=C(c3cn(CCCSC(=N)N)c4ccccc34)C(=O)NC2=O)c2ccccc21 [RO31-8220]
- effect on light induced current ([1]; 100 nM): did not affect

Molecule: NC(CCCP(=O)(O)O)C(=O)O (racemic) [APV, 2-amino-5-phosphonovaleric acid]
- effect upon the light sensitive current ([1]; 100 μM, data not shown): no effect

Molecule: Nc1nc2c(ncn2[C@@H]2O[C@H](COP(=O)(O)OP(=O)(O)OP(O)(O)=S)[C@@H](O)[C@H]2O)c(=O)[nH]1 [GTPγS]
- effect on photoresponses ([1]; 1 mM in patch pipette): largely abolished; also recorded: abolish

B1: human melanopsin: opsin photoactivator, SEQ ID NO:2, expressed from CMV-driven plasmid vector in Neuro-2a cells (protein, listed as Homo sapiens)
chain: MNSGRVSTSCMATASWWDSSSSSSGRSSTAGTWAAAWVTVDVDHAHYTGTVVGTGMGNTVYTCRSRSRTANMNAVSDMSTAVTSSYKWGTGCYACGAGSSMTTAADRYVTRATGVASKRRAAVGVWYAAWSGWSAYVGTSCSWDYMSTAVRAYTMCCVYCYRARTGRATGACKGNGSWRRSCKMAKMVVSWAYSAVAVAAGYAHVTYMSSVAVAKASAHNYATHKYRVAAHCGVGVSRRHSRYSYRSTHRSTTSHTSNSWSRRRSGSSVGWTHMAAAVWGAAANGRSYGGDAKARGHATGKTKGSDRM
modifications: Human melanopsin
- light evoked current (Neuro-2a cells [2]; 360 nm, 3×10^14 photons/cm^2/s): 72.5±19 pA
- light evoked current (Neuro-2a cells [2]; 420 nm, 8×10^14 photons/cm^2/s): 80±11 pA
- light evoked current (Neuro-2a cells [2]; 440 nm, 2×10^15 photons/cm^2/s): 32.7±14 pA
- light evoked current (Neuro-2a cells [2]; 490 nm): 8.5±1.2 pA
- light evoked current (Neuro-2a cells [2]; 540 nm, 2×10^14 photons/cm^2/s): 2.0±1.2 pA
- light evoked current, intensity dependence (Neuro-2a cells [3]; 420 nm, 10 sec, 8×10^13 or 8×10^14 photons/cm^2/sec, whole cell recording): intensity dependent sustained inward current
- cellular response to light exposure (Neuro-2a cells [3]; Neuro-2a cells expressing human melanopsin, 9-cis retinal 20 μM, 1 hour, 420 nm, 10 sec stimulus): marked cellular response
- light sensitivity (Neuro-2a cells [3]; absence of exogenous retinal): not light sensitive
- reversal potential of the response (Neuro-2a cells [3]; light-activated current, Neuro-2a cells): 0 to −10 mV
- peak light evoked slope conductance (Neuro-2a cells [3]; voltage ramp −100 to +100 mV, linear between −100 and −50 mV, 9-cis retinal, mean±SEM, n=13): 6.46±0.82 nS
